Reference: patent publication US20260125675A1, “DOWNREGULATING TROLLS USING NOVEL ANTISENSE OLIGONUCLEOTIDES TO OVERCOME RESISTANCE TO CHEMOTHERAPY” (H. LEE MOFFITT CANCER CENTER AND RESEARCH INSTITUTE, INC., priority 2022, published 2026)

Legend:
Type in all cases: cell-based, human
Details in all cases: treated 72 hr
TROLL-2 = experiment: qRT-PCR for TROLL-2 in CAID cells treated with the indicated drugs
Description: (§1) 195. We were interested in determining the effect of treatment with adriamycin, docetaxel, or paclitaxel on the levels of TOLL-2 and TROLL-3. qRT-PCR was performed for TROLL-2 and TROLL-3 in CAID cells treated with the indicated drugs for 72 hr. Western blosts of the levels of phosphorylated and total AKT, and relative quantification were determined (FIG. 1). […] We next observed that the levels of TROLL-3 are higher in lung adenocarcinoma (LUAD) with EGFR mutations with EGFR mutations in 2 distinct cohorts of patients (the TCGA cohort and Moffitt cohort) (FIGS. 2 and 3). Next we looked at the association association between pAKT levels and resistance to treatment in a panel of LUAD cell lines. Western blot levels of phosphorylated and total AKT in the indicated cell lines. Red boxes denote cell lines where PAKT levels are higher in the cells resistant to the indicated inhibitors compared to the respective parental cells (FIG. 4). Such increase in pAKT levels is associated with the resistance to anti-cancer treatment. To see the effect of TROLL-2 or TROLL-3 downregulation of pAKT levels in LUAD cells, we prefromed western blosts of the lvels of phosphorylated and total AKT in parental and KRASi resistant or EGFRi resistant cells using untreated on siRNA knockdown of TROLL-2 or TROLL-3 (FIGS. 5 and 6). We observed that downregulation of TROLL-2 or TROLL-3 reduces pAKT levels in KRASi and EGFRi resistant LUAD cells. Next we identified antisense LNA GapmeRs targeting TROLL-2 and TROLL-3 (50 nM-2 experiments). We used […]-PCR (qRT-PCR) for TROLL-2 and TROLL-3 in CAID cells treated with the indicated Antisense LNA GapmeRs for 48 hr. The following reagents were purchased from Qiagen: negative control=LG00000002-DDB, TROLL-2 A=LG00807687-DDB. TROLL-2 B=LG00807688-DDB, TROLL-2 C=LG00807689-DDB. TROLL-2 D=LG00807691-DDB, TROLL-2 E=LG00807694-DDB, TROLL-3 A=LG00807697-DDB, TROLL-3 B=LG00807698-DDB, TROLL-3 C=LG00807699-DDB, TROLL-3 D=LG00807700-DDB, and TROLL-3 E=LG00807701-DDB (FIG. 7). […]

TROLL-3 = experiment: qRT-PCR for TROLL-3 in CAID cells treated with the indicated drugs
Description: as §1

AKT = experiment: Western blot of phosphorylated and total AKT in drug-treated CAID cells
Description: as §1

Row | SMILES | levels of TROLL-2 (qRT-PCR) (TROLL-2) | levels of TROLL-3 (qRT-PCR) (TROLL-3) | AKT pathway activation (phosphorylated and total AKT, western blot) (AKT)
1 | COc1cccc2c1C(=O)c1c(O)c3c(c(O)c1C2=O)C[C@@](O)(C(=O)CO)C[C@@H]3O[C@H]1C[C@H](N)[C@H](O)[C@H](C)O1 [adriamycin] | increases | increases | activation of the AKT pathway
2 | CC(=O)O[C@@]12CO[C@@H]1C[C@H](O)[C@@]1(C)C(=O)[C@H](O)C3=C(C)[C@@H](OC(=O)[C@H](O)[C@@H](NC(=O)OC(C)(C)C)c4ccccc4)C[C@@](O)([C@@H](OC(=O)c4ccccc4)[C@H]21)C3(C)C [docetaxel] | increases | increases | activation of the AKT pathway
3 | CC(=O)O[C@H]1C(=O)[C@@]2(C)[C@H]([C@H](OC(=O)c3ccccc3)[C@]3(O)C[C@H](OC(=O)[C@H](O)[C@@H](NC(=O)c4ccccc4)c4ccccc4)C(C)=C1C3(C)C)[C@]1(OC(C)=O)CO[C@@H]1C[C@@H]2O [paclitaxel] | increases | increases | activation of the AKT pathway
